Source: ChEMBL document CHEMBL1201862, “PubChem BioAssay data set” (2004)
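Five compound concentrations were applied to cells in 96-well plates for 48 hours; endpoints were derived by simple linear interpolation of the resulting dose-response curve. GI50 = concentration required for 50% inhibition of growth.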 Active and inactive are the calls of the source. Cut-off read from the data, not from the text of the source: active = GI50 up to about 1.1 µM and inactive = higher.

How the values were obtained:
Assay in all cases: NCI tumour cell line growth inhibition, 48 h
A549 = test system: A549
CAKI-1 = test system: CAKI-1
EKVX = test system: EKVX
HCT-116 = test system: HCT-116
HCT-15 = test system: HCT-15
IGROV-1 = test system: IGROV-1
LOX IMVI = test system: LOX IMVI
MCF7 = test system: MCF7
NCI-H226 = test system: NCI-H226
NCI-H522 = test system: NCI-H522
OVCAR-3 = test system: OVCAR-3
OVCAR-4 = test system: OVCAR-4
OVCAR-5 = test system: OVCAR-5
RPMI-8226 = test system: RPMI-8226
SF-268 = test system: SF-268
SK-MEL-28 = test system: SK-MEL-28
SK-MEL-5 = test system: SK-MEL-5
SNB-75 = test system: SNB-75
UACC-257 = test system: UACC-257
UO-31 = test system: UO-31

## FC(F)(F)C1=NC(=NNc2nnc(-c3ccccc3)c(-c3ccccc3)n2)N=C(C(F)(F)F)C1
A549
  GI50: 13.3 µM (inactive)
CAKI-1
  GI50: 27.2 µM (inactive)
EKVX
  GI50: 10.2 µM (inactive)
HCT-116
  GI50: 11.6 µM (inactive)
HCT-15
  GI50: 11 µM
IGROV-1
  GI50: 21.5 µM (inactive)
LOX IMVI
  GI50: 12.7 µM (inactive)
MCF7
  GI50: 13.5 µM (inactive)
NCI-H226
  GI50: 29.4 µM (inactive)
NCI-H522
  GI50: 9.51 µM (inactive)
OVCAR-3
  GI50: > 30.7 µM (inactive)
OVCAR-4
  GI50: 13.1 µM (inactive)
OVCAR-5
  GI50: 30.2 µM (inactive)
RPMI-8226
  GI50: 12.2 µM (inactive)
SF-268
  GI50: 12.8 µM (inactive)
SK-MEL-28
  GI50: 35.8 µM (inactive)
SK-MEL-5
  GI50: 15.8 µM (inactive)
SNB-75
  GI50: 25.7 µM (inactive)
UACC-257
  GI50: 23.9 µM (inactive)
UO-31
  GI50: 4.11 µM (inactive)

## O=C1C=C(N2CC2)C(=O)C=C1N1CC1
CAKI-1
  GI50: < 0.0148 µM (active)
HCT-15
  GI50: 0.102 µM
IGROV-1
  GI50: 0.753 µM (active)
LOX IMVI
  GI50: 0.0849 µM (active)
NCI-H226
  GI50: 0.418 µM (active)
NCI-H522
  GI50: 0.0652 µM (active)
OVCAR-3
  GI50: 0.0889 µM (active)
OVCAR-4
  GI50: 0.216 µM (active)
OVCAR-5
  GI50: 0.646 µM (active)
RPMI-8226
  GI50: 0.227 µM (active)
SF-268
  GI50: 0.155 µM (active)
SK-MEL-28
  GI50: 0.29 µM (active)
SK-MEL-5
  GI50: 0.101 µM (active)
SNB-75
  GI50: 0.385 µM (active)
UACC-257
  GI50: 0.265 µM (active)
UO-31
  GI50: 0.104 µM (active)

## COc1ccc2c(c1)CCCc1cn[nH]c1-2
A549
  GI50: > 100 µM (inactive)
CAKI-1
  GI50: 77.8 µM (inactive)
EKVX
  GI50: > 74.6 µM (inactive)
HCT-116
  GI50: > 100 µM (inactive)
HCT-15
  GI50: > 100 µM
LOX IMVI
  GI50: > 100 µM (inactive)
MCF7
  GI50: > 100 µM (inactive)
NCI-H226
  GI50: > 100 µM (inactive)
NCI-H522
  GI50: > 100 µM (inactive)
OVCAR-3
  GI50: > 100 µM (inactive)
OVCAR-4
  GI50: > 100 µM (inactive)
OVCAR-5
  GI50: > 100 µM (inactive)
SF-268
  GI50: > 100 µM (inactive)
SK-MEL-28
  GI50: > 100 µM (inactive)
SK-MEL-5
  GI50: > 100 µM (inactive)
SNB-75
  GI50: > 100 µM (inactive)
UACC-257
  GI50: > 100 µM (inactive)
UO-31
  GI50: > 100 µM (inactive)

## CC(C)C1OC(=O)/C=C/C=C/C=C/C=C/C=C/CC(O)C(C)C(O)CC(O)CC(O)CC(O)CC(O)CC(O)CC(O)/C=C/C1C (stereo unspecified)
A549
  GI50: > 100 µM (inactive)
EKVX
  GI50: > 100 µM (inactive)
HCT-15
  GI50: > 100 µM
IGROV-1
  GI50: > 100 µM (inactive)
MCF7
  GI50: > 100 µM (inactive)
NCI-H522
  GI50: > 100 µM (inactive)
OVCAR-3
  GI50: > 100 µM (inactive)
OVCAR-4
  GI50: > 100 µM (inactive)
OVCAR-5
  GI50: > 100 µM (inactive)
RPMI-8226
  GI50: > 100 µM (inactive)
SF-268
  GI50: > 100 µM (inactive)
SK-MEL-28
  GI50: > 100 µM (inactive)
SNB-75
  GI50: > 100 µM (inactive)
UACC-257
  GI50: > 100 µM (inactive)
UO-31
  GI50: > 100 µM (inactive)

## CCCNC1=NC(C)=CSC(Nc2ccccc2)=C1C#N
A549
  GI50: > 100 µM (inactive)
CAKI-1
  GI50: > 100 µM (inactive)
HCT-116
  GI50: > 100 µM (inactive)
HCT-15
  GI50: > 100 µM
MCF7
  GI50: > 100 µM (inactive)
NCI-H522
  GI50: > 100 µM (inactive)
OVCAR-3
  GI50: > 100 µM (inactive)
OVCAR-4
  GI50: > 100 µM (inactive)
OVCAR-5
  GI50: > 100 µM (inactive)
RPMI-8226
  GI50: > 100 µM (inactive)
SF-268
  GI50: > 100 µM (inactive)
SK-MEL-28
  GI50: > 100 µM (inactive)
SK-MEL-5
  GI50: > 100 µM (inactive)
UO-31
  GI50: > 100 µM (inactive)

## CCOC(=O)C1(C(=O)OCC)CSC1
A549
  GI50: > 100 µM (inactive)
HCT-116
  GI50: > 100 µM (inactive)
HCT-15
  GI50: > 100 µM
LOX IMVI
  GI50: > 100 µM (inactive)
MCF7
  GI50: > 100 µM (inactive)
NCI-H226
  GI50: > 100 µM (inactive)
NCI-H522
  GI50: > 100 µM (inactive)
OVCAR-3
  GI50: > 100 µM (inactive)
OVCAR-4
  GI50: > 100 µM (inactive)
SF-268
  GI50: > 100 µM (inactive)
SK-MEL-28
  GI50: > 100 µM (inactive)
SK-MEL-5
  GI50: > 100 µM (inactive)
SNB-75
  GI50: > 100 µM (inactive)
UACC-257
  GI50: > 100 µM (inactive)
UO-31
  GI50: > 100 µM (inactive)

## N#Cc1c(NC(=S)Nc2ccc(Cl)cc2)sc2c1CCCC2
CAKI-1
  GI50: > 100 µM (inactive)
EKVX
  GI50: 3.83 µM (inactive)
HCT-116
  GI50: > 100 µM (inactive)
HCT-15
  GI50: > 100 µM
IGROV-1
  GI50: > 100 µM (inactive)
LOX IMVI
  GI50: > 100 µM (inactive)
MCF7
  GI50: > 100 µM (inactive)
NCI-H226
  GI50: > 100 µM (inactive)
NCI-H522
  GI50: 25.8 µM (inactive)
OVCAR-3
  GI50: > 100 µM (inactive)
OVCAR-4
  GI50: 5.16 µM (inactive)
OVCAR-5
  GI50: > 100 µM (inactive)
RPMI-8226
  GI50: 24.2 µM (inactive)
SF-268
  GI50: > 100 µM (inactive)
SK-MEL-28
  GI50: > 100 µM (inactive)
SK-MEL-5
  GI50: > 100 µM (inactive)
SNB-75
  GI50: > 100 µM (inactive)
UACC-257
  GI50: > 100 µM (inactive)
UO-31
  GI50: > 100 µM (inactive)

## OCC(CO)CC1COc2ccccc2O1 (stereo unspecified)
A549
  GI50: > 10 µM (inactive)
CAKI-1
  GI50: > 10 µM (inactive)
EKVX
  GI50: > 10 µM (inactive)
HCT-116
  GI50: > 10 µM (inactive)
HCT-15
  GI50: > 10 µM
IGROV-1
  GI50: > 10 µM (inactive)
LOX IMVI
  GI50: > 10 µM (inactive)
MCF7
  GI50: > 10 µM (inactive)
NCI-H226
  GI50: > 10 µM (inactive)
NCI-H522
  GI50: > 10 µM (inactive)
OVCAR-3
  GI50: > 10 µM (inactive)
OVCAR-4
  GI50: > 10 µM (inactive)
OVCAR-5
  GI50: > 10 µM (inactive)
RPMI-8226
  GI50: > 10 µM (inactive)
SF-268
  GI50: > 10 µM (inactive)
SK-MEL-28
  GI50: > 10 µM (inactive)
SK-MEL-5
  GI50: > 10 µM (inactive)
SNB-75
  GI50: > 10 µM (inactive)
UO-31
  GI50: > 10 µM (inactive)
